Broadly, the IC50 is the concentration at which inhibition is half-maximal.

T1 sequence (P06802 whole entry): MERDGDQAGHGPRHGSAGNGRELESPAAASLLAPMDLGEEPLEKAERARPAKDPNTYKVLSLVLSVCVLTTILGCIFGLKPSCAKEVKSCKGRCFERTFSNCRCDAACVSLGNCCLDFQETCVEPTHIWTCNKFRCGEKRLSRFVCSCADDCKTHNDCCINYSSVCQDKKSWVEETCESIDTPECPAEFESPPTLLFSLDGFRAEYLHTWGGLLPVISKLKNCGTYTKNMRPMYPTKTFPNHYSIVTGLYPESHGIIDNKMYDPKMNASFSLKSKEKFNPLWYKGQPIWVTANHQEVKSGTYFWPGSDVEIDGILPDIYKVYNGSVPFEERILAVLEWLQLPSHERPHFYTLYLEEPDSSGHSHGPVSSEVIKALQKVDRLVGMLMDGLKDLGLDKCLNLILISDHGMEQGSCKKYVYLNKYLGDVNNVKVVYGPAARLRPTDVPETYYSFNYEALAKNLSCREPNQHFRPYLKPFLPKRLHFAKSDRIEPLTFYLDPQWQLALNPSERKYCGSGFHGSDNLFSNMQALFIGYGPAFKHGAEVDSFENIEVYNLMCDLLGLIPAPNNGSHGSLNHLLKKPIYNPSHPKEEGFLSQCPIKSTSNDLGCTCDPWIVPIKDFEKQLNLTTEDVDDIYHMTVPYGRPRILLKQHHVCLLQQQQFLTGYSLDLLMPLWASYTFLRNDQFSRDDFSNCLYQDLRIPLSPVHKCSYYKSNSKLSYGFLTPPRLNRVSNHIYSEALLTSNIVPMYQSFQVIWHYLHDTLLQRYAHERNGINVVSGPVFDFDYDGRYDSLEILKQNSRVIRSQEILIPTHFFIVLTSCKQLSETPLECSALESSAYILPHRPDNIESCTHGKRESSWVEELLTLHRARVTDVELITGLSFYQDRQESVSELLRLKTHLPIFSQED

In one assay the target is T1, purified recombinant mouse ENPP1 (Mus musculus (Mouse), UniProt P06802). Put plainly: ENPP1 activity assay using thymidine monophosphate paranitrophenol (TMP-pNP) as a substrate. It is filed as biochemical. Conditions: TMP-pNP 2 μM, mouse ENPP1 0.5 nM, pH 7.5. The method, then:
Selected compounds of Table 1, Table 2 and other derivatives were prepared and assessed in an ENPP1 activity assay using thymidine monophosphate paranitrophenol (TMP-pNP) as a substrate. Enzyme reactions were prepared with TMP-pNP (2 μM), 5-fold dilutions of ENPP1 inhibitor, and purified recombinant mouse ENPP1 (0.5 nM) in 100 mM Tris, 150 mM NaCl, 2 mM CaCl2, 200 μM ZnCl2, pH 7.5 at room temperature. Reaction progress was monitored by measuring absorbance at 400 nm of paranitrophenolate produced by the reaction for 20 minutes.
Regarding `O=P(O)(O)CCC1CCN(c2ncnc3cc(O)ccc23)CC1` [Compound 5], the IC50 is under 0.5 µM.

For the compound `COc1cc(OC)c2ncnc(N3CCC(CCP(=O)(O)O)CC3)c2c1` [Compound 7], the IC50 is under 0.5 µM.

For `COc1ccc2c(N3CCC(CCP(=O)(O)O)CC3)ncnc2c1` [Compound 10], the IC50 was under 0.5 µM.

On to `CC(C)Oc1ccc2c(N3CCC(CCP(=O)(O)O)CC3)ncnc2c1` [Compound 11], for which the IC50 was over 10 µM.

With `COc1ccc2c(N3CCC(CCP(=O)(O)O)CC3)nc(C)nc2c1` [Compound 12], the IC50 was under 0.5 µM.

As for `O=P(O)(O)CCC1CCN(c2ncnc3cc4c(cc23)OCCO4)CC1` [Compound 13], the IC50 fell in the range of 0.5 to 5 µM.

As to `COc1ccc(OC)c2c(N3CCC(CCP(=O)(O)O)CC3)ncnc12` [Compound 16], the IC50 lay within 0.5 to 5 µM.

With `COc1ccc2c(N3CCC(CCP(=O)(O)O)CC3)nc(/C=C/c3cccnc3)nc2c1` [Compound 18], the IC50 is under 0.5 µM.

As to `COc1ccc2ncnc(N3CCC(CCP(=O)(O)O)CC3)c2c1` [Compound 19], the IC50 was under 0.5 µM.

As for `COc1ccc2c(N3CCC(CCP(=O)(O)O)CC3)ncnc2c1OC` [Compound 22], the IC50 is under 0.5 µM.

In the case of `O=P(O)(O)CCC1CCN(c2ncnc3ccc(O)cc23)CC1` [Compound 23], the IC50 lay in the range of 0.5 to 5 µM.

`O=P(O)(O)CCC1CCN(c2ncnc3ccccc23)CC1` [Compound 25]: the IC50 is under 0.5 µM.

As to `Nc1ccc2c(N3CCC(CCP(=O)(O)O)CC3)ncnc2c1` [Compound 30], the IC50 is under 0.5 µM.

Take `COc1cc2ccnc(N3CCC(CCP(=O)(O)O)CC3)c2cc1OC` [Compound 38]: the IC50 was under 0.5 µM.

In the case of `COc1ccc2c(N3CCN(CCP(=O)(O)O)CC3)ncnc2c1` [Compound 42], the IC50 is over 10 µM.

On to `COc1cc2ncnc(N3CCC(COP(=O)(O)O)CC3)c2cc1OC` [Compound 60], for which the IC50 was under 0.5 µM.

In the case of `COc1cc2ncnc(N3CCC(CC(=O)NO)CC3)c2cc1OC` [Compound 61], the 50% inhibitory concentration (IC50) lay within 0.5 to 5 µM.

In the case of `COc1cc2ncnc(N3CCC(COP(O)(O)=S)CC3)c2cc1OC` [Compound 67], the IC50 was under 0.5 µM.

As for `O=P(O)(O)CCC1CCN(c2ncnc3cccc(F)c23)CC1` [Compound 70], the IC50 is under 0.5 µM.

In the case of `COc1cc2nccc(N3CCC(CCP(=O)(O)O)CC3)c2cc1OC` [Compound 71], the IC50 is under 0.5 µM.

In the case of `CNC(=O)NCC1CCN(c2ncnc3cc(OC)c(OC)cc23)CC1` [Compound 73], the IC50 was over 10 µM.

For the compound `COc1cc2ncnc(N3CCN(C(=O)CP(=O)(O)O)CC3)c2cc1OC` [Compound 75], the IC50 is under 0.5 µM.

`COc1cccc2c(N3CCC(CCP(=O)(O)O)CC3)ncnc12` [Compound 76]: the IC50 is under 0.5 µM.

As to `COc1cc2ncnc([C@H]3CC[C@@H](CCP(=O)(O)O)CC3)c2cc1OC` [Compound 81, (2-((1,4-cis)-4-(6,7-dimethoxyquinazolin-4-yl)cyclohexyl)ethyl)phosphonic acid], the IC50 was under 0.5 µM.

On to `COc1cc2ncnc([C@H]3CC[C@H](CCP(=O)(O)O)CC3)c2cc1OC` [Compound 82, (2-((1,4-trans)-4-(6,7-dimethoxyquinazolin-4-yl)cyclohexyl)ethyl)phosphonic acid], for which the 50% inhibitory concentration (IC50) was under 0.5 µM.

Consider `COc1cc2ncnc(N3CCC(CCP(O)(O)=S)CC3)c2cc1OC` [Compound 83, (2-(1-(6,7-dimethoxyquinazolin-4-yl)piperidin-4-yl)ethyl)phosphonothioic O,O-acid], for which the IC50 was under 0.5 µM.

In the case of `O=P(O)(O)CCC1CCN(c2ncnc3cc(Cl)ccc23)CC1` [Compound 84], the half-maximal inhibitory concentration (IC50) was under 0.5 µM.

Consider `COc1cccc2c(N3CCC(COP(=O)(O)O)CC3)ncnc12` [Compound 86], for which the IC50 is under 0.5 µM.

Regarding `COc1cc2ncnc(N3CCC(CCB(O)O)CC3)c2cc1OC` [Compound 87], the IC50 is under 0.5 µM.

On to `COc1cc2ncnc(N3CCC(CP(=O)(O)O)CC3)c2cc1OC` [Compound 88, ((1-(6,7-dimethoxyquinazolin-4-yl)piperidin-4-yl)methyl)phosphonic acid], for which the half-inhibitory concentration (IC50) is under 0.5 µM.

As to `Cc1nccn1-c1cc(N2CCC(CCP(=O)(O)O)CC2)ncn1` [Compound 93], the IC50 is under 0.5 µM.

On to `Cc1nccn1-c1cc(N2CCN(CCP(=O)(O)O)CC2)ncn1` [Compound 100], for which the IC50 is under 0.5 µM.

For another assay, the target named is T1, purified recombinant mouse ENPP1. Put plainly: ENPP1 enzyme activity assay using 32P cGAMP as a substrate (TLC). Format: biochemical. To be noted: 32P-cGAMP 5 μM, mouse ENPP1 20 nM, pH 7.5, 5 hours.
In the case of `COc1ccc2c(N3CCC(CCP(=O)(O)O)CC3)ncnc2c1` [Compound 10], the IC50 is under 0.5 µM.

In the case of `COc1ccc2c(N3CCC(CCP(=O)(O)O)CC3)nc(/C=C/c3cccnc3)nc2c1` [Compound 18], the IC50 was under 0.5 µM.

Consider `COc1cc2ncnc(N3CCN(C(=O)CP(=O)(O)O)CC3)c2cc1OC` [Compound 75], for which the IC50 is 0.5 to 5 µM.

Take `COc1cccc2c(N3CCC(CCP(=O)(O)O)CC3)ncnc12` [Compound 76]: the IC50 was under 0.5 µM.

For another assay, the system named is 4T1-luciferase tumor. Put plainly: 4T1 tumor model: tumor volume and survival with IR, cGAMP, anti-CTLA-4. It is filed as in vivo, Balb/c mice. Conditions: 20 Gy IR, then single agent intratumorally on day 2, 4 and 7 (100 μL of 100 μM compound 1 or 10 μg cGAMP).
As to `Nc1nc2c(ncn2[C@@H]2O[C@@H]3COP(=O)(O)O[C@H]4[C@@H](O)[C@H](n5cnc6c(N)ncnc65)O[C@@H]4COP(=O)(O)O[C@@H]2[C@@H]3O)c(=O)[nH]1` [cGAMP, cyclic guanosine monophosphate-adenosine monophosphate], the “tumor shrinkage effect over IR treatment” value was “no effect over IR treatment”.

These data come from patent US20230277570A1, “ENPP1 Inhibitors and Their Use for the Treatment of Cancer” (The Board of Trustees of the Leland Stanford Junior …, priority 2017, published 2023).
